Results reported in ChEMBL document CHEMBL4622940, “Synthesis and dopamine receptor pharmacological evaluations on ring C ortho halogenated 1-phenylbenzazepines” (Bioorg Med Chem Lett, 2020).
The source made the active and inactive calls. No cut-off for these calls is given here.

Molecular target: D(1B) dopamine receptor (Homo sapiens, UniProt P21918)
Experiment: Displacement of [3H]SCH23390 from dopamine D5 receptor (unknown origin)

D(1B) dopamine receptor, sequence (P21918 whole entry): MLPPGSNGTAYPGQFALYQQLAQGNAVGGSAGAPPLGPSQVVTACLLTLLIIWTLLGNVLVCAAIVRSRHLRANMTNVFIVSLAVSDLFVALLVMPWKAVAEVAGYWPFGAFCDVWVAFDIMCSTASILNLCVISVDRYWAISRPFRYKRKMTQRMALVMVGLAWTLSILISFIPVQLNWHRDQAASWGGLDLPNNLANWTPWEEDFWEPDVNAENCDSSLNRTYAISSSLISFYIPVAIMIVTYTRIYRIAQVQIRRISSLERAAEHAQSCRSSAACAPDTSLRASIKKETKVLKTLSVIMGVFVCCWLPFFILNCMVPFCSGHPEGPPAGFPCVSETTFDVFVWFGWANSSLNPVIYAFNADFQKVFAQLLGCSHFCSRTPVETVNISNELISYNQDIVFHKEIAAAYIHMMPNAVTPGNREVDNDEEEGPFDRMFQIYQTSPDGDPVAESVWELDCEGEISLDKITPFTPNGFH

| SMILES | Ki [nM] |
| --- | --- |
| CN1CCc2cc(O)c(O)cc2C(c2ccccc2Br)C1 (stereo not drawn) | 223 |
| COc1cc2c(cc1O)C(c1ccccc1Br)CN(C)CC2 (stereo not drawn) | 47 |
| COc1cc2c(cc1O)C(c1ccccc1Cl)CNCC2 (stereo not drawn) | 483 |
| COc1cc2c(cc1O)C(c1ccccc1Br)CNCC2 (stereo not drawn) | 82 |
| COc1cc2c(cc1O)C(c1c(Cl)cccc1Cl)CN(C)CC2 (stereo not drawn) | 49.1 |
| C=CCN1CCc2cc(OC)c(O)cc2C(c2ccccc2Br)C1 (stereo not drawn) | 501 |
| C=CCN1CCc2cc(OC)c(O)cc2C(c2ccccc2Cl)C1 (stereo not drawn) | 264 |
| Oc1cc2c(cc1O)C(c1ccccc1Br)CNCC2 (stereo not drawn) | 67 |
| COc1cc2c(cc1O)C(c1ccccc1)CNCC2 (stereo not drawn) | 310 |
| COc1cc2c(cc1O)C(c1c(Cl)cccc1Cl)CNCC2 (stereo not drawn) | 25.4 |
| C=CCN1CCc2cc(OC)c(O)cc2C(c2c(Cl)cccc2Cl)C1 (stereo not drawn) | 479 |
| C=CCN1CCc2cc(O)c(O)cc2C(c2ccccc2Br)C1 (stereo not drawn) | 442 |
| COc1cc2c(cc1O)C(c1ccccc1Cl)CN(C)CC2 (stereo not drawn) | 46.4 |

Molecular target: T1, D(2) dopamine receptor (Homo sapiens, UniProt P14416)
T1 sequence (P14416 whole entry): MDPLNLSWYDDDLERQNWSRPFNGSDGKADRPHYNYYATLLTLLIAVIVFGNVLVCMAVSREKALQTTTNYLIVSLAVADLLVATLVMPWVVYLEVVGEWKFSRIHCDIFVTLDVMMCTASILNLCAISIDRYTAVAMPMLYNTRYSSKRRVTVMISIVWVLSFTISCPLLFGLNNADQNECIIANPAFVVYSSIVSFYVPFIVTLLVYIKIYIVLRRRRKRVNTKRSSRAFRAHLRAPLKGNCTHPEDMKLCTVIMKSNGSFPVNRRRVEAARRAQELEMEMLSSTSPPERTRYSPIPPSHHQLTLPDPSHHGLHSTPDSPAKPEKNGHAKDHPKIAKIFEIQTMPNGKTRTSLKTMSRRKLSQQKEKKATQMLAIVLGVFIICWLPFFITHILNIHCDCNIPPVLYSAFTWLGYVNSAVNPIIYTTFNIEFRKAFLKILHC
Experiment: Displacement of [3H]N-methylspiperone from dopamine D2 receptor (unknown origin)

| SMILES | Ki [nM] |
| --- | --- |
| C=CCN1CCc2cc(OC)c(O)cc2C(c2c(Cl)cccc2Cl)C1 (stereo not drawn) | 1510 |

Molecular target: T2, D(1A) dopamine receptor (Homo sapiens, UniProt P21728)
T2 sequence (P21728 whole entry): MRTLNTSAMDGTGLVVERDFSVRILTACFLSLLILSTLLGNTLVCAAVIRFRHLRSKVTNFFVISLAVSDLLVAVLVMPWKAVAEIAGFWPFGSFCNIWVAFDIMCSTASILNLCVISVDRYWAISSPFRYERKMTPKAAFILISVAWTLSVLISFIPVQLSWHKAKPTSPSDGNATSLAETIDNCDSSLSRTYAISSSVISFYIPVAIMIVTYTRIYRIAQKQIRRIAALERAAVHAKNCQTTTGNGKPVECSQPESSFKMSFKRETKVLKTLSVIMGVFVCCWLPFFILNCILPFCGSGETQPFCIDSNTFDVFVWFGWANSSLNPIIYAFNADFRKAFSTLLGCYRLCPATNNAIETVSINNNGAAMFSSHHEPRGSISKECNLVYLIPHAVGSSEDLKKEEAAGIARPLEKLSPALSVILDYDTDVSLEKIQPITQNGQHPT
Experiment: Displacement of [3H]SCH23390 from dopamine D1 receptor (unknown origin)

| SMILES | Ki [nM] |
| --- | --- |
| CN1CCc2cc(O)c(O)cc2C(c2ccccc2Br)C1 (stereo not drawn) | 59.4 |
| COc1cc2c(cc1O)C(c1ccccc1Br)CN(C)CC2 (stereo not drawn) | 16 |
| COc1cc2c(cc1O)C(c1ccccc1Cl)CNCC2 (stereo not drawn) | 147 |
| COc1cc2c(cc1O)C(c1ccccc1Br)CNCC2 (stereo not drawn) | 72 |
| COc1cc2c(cc1O)C(c1c(Cl)cccc1Cl)CN(C)CC2 (stereo not drawn) | 145 |
| C=CCN1CCc2cc(OC)c(O)cc2C(c2ccccc2Br)C1 (stereo not drawn) | 41 |
| C=CCN1CCc2cc(OC)c(O)cc2C(c2ccccc2Cl)C1 (stereo not drawn) | 48.3 |
| Oc1cc2c(cc1O)C(c1ccccc1Br)CNCC2 (stereo not drawn) | 26 |
| COc1cc2c(cc1O)C(c1ccccc1)CNCC2 (stereo not drawn) | 126 |
| COc1cc2c(cc1O)C(c1c(Cl)cccc1Cl)CNCC2 (stereo not drawn) | 76.1 |
| C=CCN1CCc2cc(OC)c(O)cc2C(c2c(Cl)cccc2Cl)C1 (stereo not drawn) | 1040 |
| C=CCN1CCc2cc(O)c(O)cc2C(c2ccccc2Br)C1 (stereo not drawn) | 133 |
| COc1cc2c(cc1O)C(c1ccccc1Cl)CN(C)CC2 (stereo not drawn) | 14 |

Species: Homo sapiens
Experiment: Selectivity index, ratio of Ki for displacement of [3H]SCH23390 from dopamine D5 receptor (unknown origin) to Ki for displacement of [3H]SCH23390 from dopamine D1 receptor (unknown origin)

| SMILES | Ratio Ki |
| --- | --- |
| CN1CCc2cc(O)c(O)cc2C(c2ccccc2Br)C1 (stereo not drawn) | 3 to 4 |
| COc1cc2c(cc1O)C(c1ccccc1Br)CN(C)CC2 (stereo not drawn) | 4 |
| COc1cc2c(cc1O)C(c1ccccc1Cl)CNCC2 (stereo not drawn) | < 3 |
| COc1cc2c(cc1O)C(c1ccccc1Br)CNCC2 (stereo not drawn) | < 3 |
| COc1cc2c(cc1O)C(c1ccccc1)CNCC2 (stereo not drawn) | < 3 |
| C=CCN1CCc2cc(O)c(O)cc2C(c2ccccc2Br)C1 (stereo not drawn) | 3 to 4 |
| COc1cc2c(cc1O)C(c1ccccc1Cl)CN(C)CC2 (stereo not drawn) | 3 |

Molecular target: T2, D(1A) dopamine receptor
Experiment: Agonist activity at human dopamine D1 receptor expressed in CHO-K1 cells by cAMP Hunter assay
Assay type: functional, cell-based

| SMILES | Activity |
| --- | --- |
| COc1cc2c(cc1O)C(c1ccccc1Cl)CN(C)CC2 (stereo not drawn) | inactive |

Molecular target: T2, D(1A) dopamine receptor
Experiment: Antagonist activity at human dopamine D1 receptor expressed in CHO-K1 cells by cAMP Hunter assay
Assay type: functional, cell-based

| SMILES | IC50 [nM] |
| --- | --- |
| COc1cc2c(cc1O)C(c1ccccc1Cl)CN(C)CC2 (stereo not drawn) | 9.4 |

Molecular target: T1, D(2) dopamine receptor
Experiment: Displacement of [3H]N-methylspiperone from dopamine D2 receptor (unknown origin) at 10 uM relative to control

| SMILES | inhibition [%] |
| --- | --- |
| CN1CCc2cc(O)c(O)cc2C(c2ccccc2Br)C1 (stereo not drawn) | < 50 |
| COc1cc2c(cc1O)C(c1ccccc1Br)CN(C)CC2 (stereo not drawn) | < 50 |
| COc1cc2c(cc1O)C(c1ccccc1Cl)CNCC2 (stereo not drawn) | < 50 |
| COc1cc2c(cc1O)C(c1ccccc1Br)CNCC2 (stereo not drawn) | < 50 |
| COc1cc2c(cc1O)C(c1c(Cl)cccc1Cl)CN(C)CC2 (stereo not drawn) | < 50 |
| C=CCN1CCc2cc(OC)c(O)cc2C(c2ccccc2Br)C1 (stereo not drawn) | < 50 |
| C=CCN1CCc2cc(OC)c(O)cc2C(c2ccccc2Cl)C1 (stereo not drawn) | < 50 |
| Oc1cc2c(cc1O)C(c1ccccc1Br)CNCC2 (stereo not drawn) | < 50 |
| COc1cc2c(cc1O)C(c1ccccc1)CNCC2 (stereo not drawn) | < 50 |
| COc1cc2c(cc1O)C(c1c(Cl)cccc1Cl)CNCC2 (stereo not drawn) | < 50 |
| C=CCN1CCc2cc(O)c(O)cc2C(c2ccccc2Br)C1 (stereo not drawn) | < 50 |
| COc1cc2c(cc1O)C(c1ccccc1Cl)CN(C)CC2 (stereo not drawn) | < 50 |
